Assay results from patent US7625945B2, “Andrographolide and analogues as inhibitors of TNFα and IL-1β expression” (Hutchison MediPharma Enterprises Ltd., priority 2004, dated 2009).

System: DNBS-induced colitis
Experiment: In vivo assay: DNBS-induced distal colitis in rats
Parameters: species or system Male Wistar rats
Details: DNBS-treated rats, 10 mg/kg i.p.
Procedure: Male Wistar rats (170-190 g, provided by Chinese academy of science animal center, Shanghai) were housed (7˜8 rats per cage) in a controlled environment and fed with standard rodent chow and water. Distal colitis was induced to the rats according to the procedure described in Hogaboam C. M., European Journal of Pharmacology, 1996, 309: 261-269. Briefly, the rats were anaesthetized with 1% pentobarbital sodium. 2,4-Dinitrobenzene sulfonic acid (DNBS) in 0.25 ml of 30% ethanol (v/v) was introduced into the colon (8 cm proximal to the anus) via a PE 50 cannula. In the control group (blank-control), 30% ethanol (v/v), in stead of DNBS in ethanol, was introduced. Andrographolide (10 mg/kg, i.p.) was administered to a group of DNBS-treated rats 24 hours and 2 hours prior to the colitis induction and once daily thereafter for 5 days. The rats were weighed daily. All rats were sacrificed 6 days after the colitis induction, and colon, spleen, and thymus were removed and weighed. The colon weight/body weight ratio, spleen weight/body weight ratio, and thymus weight/body weight ratio were calculated. Samples of colon tissues located precisely 2 cm above the anal canal were obtained, fixed in 10% neutral-buffered formalin, embedded in paraffin, sectioned, and stained with hematoxylin/eosin. The samples were examined under microscope to determine severity of the lesions.

C=C1CC[C@@H]2[C@](C)(CO)[C@H](O)CC[C@@]2(C)[C@@H]1C/C=C1/C(=O)OC[C@H]1O [andrographolide]
overall effect on DNBS-induced colitis: effectively alleviated or even cured | microscopic examination of colon: severity of inflammation (colon sections hematoxylin/eosin, 6 days after induction): much less severe inflammation | colon weight/body weight ratio (treatment for 6 days): decreased | wasting syndrome (weight loss, diarrhea) (treatment for 6 days): alleviated wasting syndrome
